# Test results taken from patent publication US20230391796A1, “GLYCOSIDASE INHIBITORS AND USES THEREOF” (UNIVERSIDAD DE SEVILLA (US) -UNIVERSITY OF SEVILLE (US), priority 2020, published 2023).
# Counter-ions that a name gives are not always drawn.
# Assays:
# [1] = biological target: β-N-acetylglucosaminidase (from jack bean); test: Inhibition assay against commercial β-N-acetylglucosaminidase (jack bean), p-nitrophenyl N-acetyl-β-D-glucosaminide substrate; type: biochemical; details: pH 5.5, 37° C.; average of three determinations ± s.e.m.; NI = no inhibition detected at 200 μM; read-out: Jack beans Hex
# Protocol: (§1) Inhibition Assays Against Commercial β-N-acetylglucosaminidases
# (§2) Inhibition constant (Ki) values were determined by spectrophotometrically measuring the residual hydrolytic activities of the glycosidases against p-nitrophenyl N-acetyl-β-D-glucosaminide. […] Each assay was performed in phosphate-citrate buffer and the reactions were initiated by addition of the enzyme to a solution of the substrate in the absence or presence of various inhibitor concentrations. The mixture was incubated for 10-30 min at 37° C. and the reaction was quenched by addition of 1 M Na2CO3. Reaction times were appropriate to obtain 10-20% conversion of the substrate in order to achieve linear rates. The absorbance of the resulting mixture was determined at 405 nm. Approximate values of Ki were determined using a fixed concentration of substrate (around the Km value for the different glycosidases) and various inhibitor concentrations. Full Ki determinations and enzyme inhibition mode were determined from the slope of Lineweaver-Burk plots and double reciprocal analysis using a Microsoft Office Excel 2007 program.
# [2] = biological target: β-N-acetylglucosaminidase (from bovine kidney); test: Inhibition assay against commercial β-N-acetylglucosaminidase (bovine kidney), p-nitrophenyl N-acetyl-β-D-glucosaminide substrate; type: biochemical; details: pH 5.5, 37° C.; average of three determinations ± s.e.m.; NI = no inhibition detected at 200 μM; read-out: Bovine kidney Hex
# Protocol: as §1, §2
# [3] = In vivo pharmacokinetics, plasma and brain concentrations; set-up: species or system C57BL/6 mice; details: 3 mg/kg single dose
# Protocol: Mean plasma concentration (ng/mL) of compound 4 in C57BL/6 mice after 3 mg/kg i.v. administration.
# Mean brain concentration (ng/mL) of 4 in C57BL/6 mice after 3 mg/kg i.v. administration
# Assay for Determination of the in vivo Pharmacokinetics.
# The pharmacokinetic profiles of the compounds to be tested were evaluated in vivo in C57BL/6 mice (n=14) following a 3 mg/kg […] dose.
# [4] = biological target: β-N-acetylglucosaminidase (from human placenta); test: Inhibition assay against commercial β-N-acetylglucosaminidase (human placenta), p-nitrophenyl N-acetyl-β-D-glucosaminide substrate; type: biochemical; details: pH 5.5, 37° C.; average of three determinations ± s.e.m.; read-out: Human placenta Hex
# Protocol: as §1, §2
# [5] = biological target: T1, Recombinant Human Hexosaminidase A (HexA) (Homo sapiens, UniProt P06865); test: Inhibition assay against rhHexA, 4-methylumbelliferone-N-acetyl-β-D-glucosaminide fluorescence; type: biochemical; details: IC50 for lysosomal hHexA; NI = no inhibition detected at 200 μM
# T1 construct: purchased R&D Systems 6237-GH-020
# T1 sequence (P06865 89-529): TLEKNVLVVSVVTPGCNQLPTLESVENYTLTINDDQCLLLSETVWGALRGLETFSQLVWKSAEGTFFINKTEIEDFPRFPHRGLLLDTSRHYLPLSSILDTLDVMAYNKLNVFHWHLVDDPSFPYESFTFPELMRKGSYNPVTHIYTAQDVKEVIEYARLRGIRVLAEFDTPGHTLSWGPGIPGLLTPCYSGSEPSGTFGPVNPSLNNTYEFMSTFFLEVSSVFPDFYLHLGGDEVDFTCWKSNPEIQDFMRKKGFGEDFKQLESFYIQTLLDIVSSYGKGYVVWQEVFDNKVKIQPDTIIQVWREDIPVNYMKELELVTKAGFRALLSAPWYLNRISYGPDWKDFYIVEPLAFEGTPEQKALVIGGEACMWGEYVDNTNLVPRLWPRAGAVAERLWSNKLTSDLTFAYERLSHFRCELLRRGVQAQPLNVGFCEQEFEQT
# Protocol: Inhibition Assays Against rhHexA
# Human Hexosaminidase A (HexA) enzyme, purchased from R&D Systems (cat# 6237-GH-020), were determined by measuring the fluorescent signal corresponding to the rate of hydrolytic activity against the commercially available artificial substrate, 4-Methylumbelliferone-N-acetyl-β-D-glucosaminide. HexA activity assays were performed in a buffer of 100 mM sodium citrate, 250 NaCl, pH 4.5 and 1.0 nM [HexA], then stopped after 20 minutes with a solution of 1.0 M Tris, pH 9.5 to enhance fluorescent signal. Preliminary experiments have shown that reaction rates are linear for 20 minutes after substrate addition, and that 1.0 M Tris at pH 9.5 is sufficient for stopping activity, as signal is stable after stopping. Inhibition assays were run in the presence or absence of various concentrations of inhibitors and at a fixed substrate concentration of 100 μM and 1% DMSO. First, inhibitor was serially diluted to the desired range of concentrations in 2% DMSO buffer. Next, 25 μL, of inhibitor solutions at various concentrations in 2% DMSO Buffer was added to 25 μL, of 4.0 nM enzyme and allowed to incubate at 25° C. for 5 minutes. 50 μL of 200 μM and 1% DMSO substrate was then added and allowed to react for 20 minutes. 100 μL of stop solution was added to reaction mixture, and immediately mixed and aliquoted in 45 μL triplicates to a CORNING 384 well black plate. Fluorescence signal was measured in a BioTek Neo 2 Plate reader set at excitation and emission wavelengths of 355 and 450 nm, respectively. % Activity was subsequently calculated for each inhibitor concentration against the fluorescence signal of uninhibited HexA. […]
# hOGA = biological target: T2, hOGA (Homo sapiens, UniProt O60502); test: Inhibition assay against hOGA, resorufin N-acetyl-β-D-glucosaminide fluorescence; type: biochemical; details: 0.2 nM hOGA, 25 μM substrate, pH 7.1; Morrison Ki
# T2 sequence (O60502 1-916): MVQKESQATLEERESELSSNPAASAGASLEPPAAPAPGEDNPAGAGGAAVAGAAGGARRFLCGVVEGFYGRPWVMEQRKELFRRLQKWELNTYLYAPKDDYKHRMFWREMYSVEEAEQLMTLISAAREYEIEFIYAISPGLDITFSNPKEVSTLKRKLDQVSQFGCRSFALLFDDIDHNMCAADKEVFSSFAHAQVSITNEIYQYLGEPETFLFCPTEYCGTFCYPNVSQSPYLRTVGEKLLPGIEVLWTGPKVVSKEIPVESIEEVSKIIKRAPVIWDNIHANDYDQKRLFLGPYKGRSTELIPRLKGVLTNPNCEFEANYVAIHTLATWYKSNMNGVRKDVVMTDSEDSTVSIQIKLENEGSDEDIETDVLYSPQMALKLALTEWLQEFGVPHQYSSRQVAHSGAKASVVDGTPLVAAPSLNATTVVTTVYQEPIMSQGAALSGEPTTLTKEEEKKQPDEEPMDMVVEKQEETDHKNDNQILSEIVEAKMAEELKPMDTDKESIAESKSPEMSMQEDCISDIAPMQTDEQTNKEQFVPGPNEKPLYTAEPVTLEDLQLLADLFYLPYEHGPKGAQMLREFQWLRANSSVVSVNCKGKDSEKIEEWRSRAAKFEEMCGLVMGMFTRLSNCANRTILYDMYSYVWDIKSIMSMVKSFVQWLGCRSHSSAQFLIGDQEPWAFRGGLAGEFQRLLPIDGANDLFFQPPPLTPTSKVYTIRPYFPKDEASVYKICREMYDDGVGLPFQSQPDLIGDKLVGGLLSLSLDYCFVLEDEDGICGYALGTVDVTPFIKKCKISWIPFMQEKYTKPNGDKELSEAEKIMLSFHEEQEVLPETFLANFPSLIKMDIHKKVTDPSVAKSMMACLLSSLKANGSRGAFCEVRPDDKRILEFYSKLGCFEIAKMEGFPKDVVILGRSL
# Protocol: Inhibition Assays Against hOGA
# Km=25 μM was measured with these conditions. Inhibition assays were run at 0.2 nM [hOGA] in the same buffer, in the presence or absence of various concentrations of inhibitors and at a fixed substrate concentration of 25 μM and 1% DMSO. First, inhibitor was serially diluted to the desired range of concentrations in 2% DMSO buffer. Next, 50 μL of inhibitor solutions at various concentrations in 2% DMSO Buffer was added to 50 μL of 0.8 nM enzyme and allowed to incubate at 25° C. for 5 minutes. 100 uL of 50 μM and 1% DMSO substrate was then added and reaction mixture was immediately mixed and aliquoted in 45 μL triplicates to a CORNING 384 well black plate. Fluorescence signal was measured continuously for 20 minutes at 37° C. in a BioTek Neo 2 Plate reader set at excitation and emission wavelengths of 572 and 610 nm, respectively. Max reaction rates for all inhibitor concentrations were calculated within Gen5 BioTek reader software. % Activity was subsequently calculated for each inhibitor concentration against the max reaction rate of uninhibited hOGA. GraphPad Prism 2016 was used to approximate the Morrison Ki values for each inhibitor.
smiles,measurement,setting,value
"CC(=O)N[C@H]1CN2/C(=N/Cc3ccccc3)SC[C@@H]2[C@@H](O)[C@@H]1O [Compound 4, 2-Acetamido-5-N,6-S-(N′-benzyliminomethylidene)-1,2-dideoxy-6-thionojirimycin Hydrochloride]",Ki,[1],750 ± 40 nM
same,Ki,[2],460 ± 30 nM
same,"brain concentration, start of the decrease (FIG. 2)","[3]; homogenized brain, initial value",26 ng/g
same,"plasma concentration, start of the decrease (FIG. 1)","[3]; plasma, initial value",1100 ng/mL
same,concentration at 24 h,"[3]; C57BL/6, mouse, intravenous, homogenized brain, 24 h, read-out: brain concentration after 24 h (FIG. 2)",7.5 ng/g
same,concentration at 12 h,"[3]; C57BL/6, mouse, intravenous, plasma, 12 h, read-out: plasma concentration after 12 h (FIG. 1)",0.78 ng/mL
same,Ki,[4],420 ± 30 nM
same,IC50,[5],560 nM
same,Ki,hOGA,2.99 nM
